Experimental data from paper PMC5234074 (2017).

Tests used:
[1] = test system: EC-207 (thiC 1-207 nascent transcript) (RNA, riboswitch) UAAUUUCUUGUCGGAGUGCCUUAACUGGCUGAGACCGUUUAUUCGGGAUCCGCGGAACCUGAUCAGGCUAAUACCUGCGAAGGGAACAAGAGUUAAUCUGCUAUCGCAUCGCCCCUGCGGCGAUCGUCUCUUGCUUCAUCCGUCGUCUGACAAGCCACGUCCUUAACUUUUUGGAAUGAGCUAUGUCUGCAACAAAACUGACCCGCC; assay: RNase H cleavage of stalled elongation complex, P1 probe; details: 20 mM MgCl2, 20 mM NaCl (transcription); 20 mM MgCl2, 100 mM KCl (RNase H step); Tris-HCl pH 8.0, 37 °C; 10 μM TPP; RNAP bound; sensing partially recovered
[2] = test system: 158 nt thiC transcript (without RNAP) (RNA, riboswitch) UAAUUUCUUGUCGGAGUGCCUUAACUGGCUGAGACCGUUUAUUCGGGAUCCGCGGAACCUGAUCAGGCUAAUACCUGCGAAGGGAACAAGAGUUAAUCUGCUAUCGCAUCGCCCCUGCGGCGAUCGUCUCUUGCUUCAUCCGUCGUCUGACAAGCCAC; assay: RNase H cleavage of free transcript; details: 20 mM MgCl2, 20 mM NaCl (transcription); 20 mM MgCl2, 100 mM KCl (RNase H step); Tris-HCl pH 8.0, 37 °C; 10 μM TPP; cleavage ratio 3.4; less efficient than EC-158
[3] = test system: EC-108 (thiC 1-108 nascent transcript) (RNA, riboswitch) UAAUUUCUUGUCGGAGUGCCUUAACUGGCUGAGACCGUUUAUUCGGGAUCCGCGGAACCUGAUCAGGCUAAUACCUGCGAAGGGAACAAGAGUUAAUCUGCUAUCGCA; assay: RNase H cleavage of stalled elongation complex, P1 probe; details: 20 mM MgCl2, 20 mM NaCl (transcription); 20 mM MgCl2, 100 mM KCl (RNase H step); Tris-HCl pH 8.0, 37 °C; 10 μM TPP; cleavage ratio 6.7; RNAP bound
[4] = test system: 143 nt thiC transcript (without RNAP) (RNA, riboswitch) UAAUUUCUUGUCGGAGUGCCUUAACUGGCUGAGACCGUUUAUUCGGGAUCCGCGGAACCUGAUCAGGCUAAUACCUGCGAAGGGAACAAGAGUUAAUCUGCUAUCGCAUCGCCCCUGCGGCGAUCGUCUCUUGCUUCAUCCGU; assay: RNase H cleavage of free transcript; details: 20 mM MgCl2, 20 mM NaCl (transcription); 20 mM MgCl2, 100 mM KCl (RNase H step); Tris-HCl pH 8.0, 37 °C; 10 μM TPP; cleavage ratio higher than 158 nt transcript
[5] = test system: EC-100 (thiC 1-100 nascent transcript) (RNA, riboswitch) UAAUUUCUUGUCGGAGUGCCUUAACUGGCUGAGACCGUUUAUUCGGGAUCCGCGGAACCUGAUCAGGCUAAUACCUGCGAAGGGAACAAGAGUUAAUCUG; assay: RNase H cleavage of stalled elongation complex, P1 probe; details: 20 mM MgCl2, 20 mM NaCl (transcription); 20 mM MgCl2, 100 mM KCl (RNase H step); Tris-HCl pH 8.0, 37 °C; 10 μM TPP; cleavage ratio 1.3; RNAP bound
[6] = test system: EC-197 (thiC 1-197 nascent transcript) (RNA, riboswitch) UAAUUUCUUGUCGGAGUGCCUUAACUGGCUGAGACCGUUUAUUCGGGAUCCGCGGAACCUGAUCAGGCUAAUACCUGCGAAGGGAACAAGAGUUAAUCUGCUAUCGCAUCGCCCCUGCGGCGAUCGUCUCUUGCUUCAUCCGUCGUCUGACAAGCCACGUCCUUAACUUUUUGGAAUGAGCUAUGUCUGCAACAAAA; assay: as above; details: 20 mM MgCl2, 20 mM NaCl (transcription); 20 mM MgCl2, 100 mM KCl (RNase H step); Tris-HCl pH 8.0, 37 °C; 10 μM TPP; RNAP bound; sensing partially recovered

Measured: binding

Cc1ncc(C[n+]2csc(CCOP(=O)(O)OP(=O)(O)O)c2C)c(N)n1
yes: [1] | [2] | [3] | [4] | [6]
weak: [5]
